Several values for one entry are separate records, joined by “and”; a condition that tells them apart may be missing. Equal entries are not always repeated. Where two headings read alike, the source gives them in different places.
What was measured:
Efl1 R1086Q•Sdo1 = target: T1, Efl1 R1086Q•Sdo1 (Saccharomyces cerevisiae, UniProt P53893, R1086Q); experiment: ITC: binding of guanine nucleotides to pre-formed complex Efl1 R1086Q•Sdo1; settings: for ΔCpb: from ΔHb at 25–35 °C; for -TΔs / Δg / Δh / κ (heterotropic cooperativity): Effect of Mg^2+
T1 construct: made in house; host or cells: Efl1: Saccharomyces cerevisiae; Sdo1: Escherichia coli C41
Procedure: All calorimetric measurements were carried out using MicroCal^TM iTC200 System (GE Healthcare, Northampton, MA, USA) in a temperature range of 25–35 °C. Experiments were performed in a buffer consisting of 50 mM Tris-HCl (pH 8.0), 150 mM NaCl, 100 µM DTT, and 5% glycerol. In the titrations with Mg^2+-bound nucleotides, both the ligand and protein solutions contained 5 mM MgCl2. In the case of titrations with Mg^2+-free nucleotide, both the ligand and protein solutions were supplemented with 2 mM EDTA to sequester any residual trace of metal ions in solution. Protein samples and ligands were prepared in the exact same buffer prior to each titration. Protein concentration in the cell comprised 30–50 µM GTPase, while the ligand concentration in the syringe was 2–3 mM for GTP, MgGTP, GDP, and MgGDP. To ensure measuring the interaction of the complex Efl1 R1086Q•Sdo1 with the nucleotide, an eight-fold concentration excess of Sdo1 was used compared with that of the enzyme. […] The titration schedule consisted of 15–20 consecutive injections of the ligand with 5 min intervals between injections and a stirring rate of 700 rpm. The dilution heat of the ligand was obtained by adding the ligand to a buffer solution under identical conditions and with the same injection schedule used for the protein sample. All samples were degassed for 10 min prior to the experiment.
The binding isotherms obtained for the isolated GTPase in the presence of Mg(II) were analysed using a ternary model in which the protein can bind to the free nucleotide (G(D)TP) or that bound to one magnesium ion (MgG(D)TP); additionally, GTP may also exist in the form of Mg2GTP, which is not recognised by the protein. The derivation of this coupled-equilibria model can be reviewed in [6, 31]. The binding constant (Kb), the enthalpy change (∆Hb), and the stoichiometry (n) were obtained with the non-linear routines implemented in Origin 5.0 (OriginLab, Co., Northampton, MA, USA) using a one-binding-site model as described in [32, 33]. The heterotropic cooperativity for the binding of guanine nucleotides and Sdo1 to Efl1 R1086Q were calculated as previously described in [6, 32]. The cooperative effects of Mg(II) on the binding of guanine nucleotides to Efl1 R1086Q alone and bound to Sdo1 were calculated as follows:κ = KE-MG/KE-G κ = KES-MG/KES-G Δh = ΔHE-MG − ΔHE-G Δh = ΔHES-MG − ΔHES-G where subscripts E-MG and E-G stand for the association of the metal-bound and metal-free guanine nucleotide with mutant Efl1, respectively. Corresponding expressions applied to the heterotropic cooperativity of the binding of nucleotides to the preformed complex, Efl1•Sdo1 (ES).
The impact of Sdo1 on the binding of Efl1 R1086Q to guanine nucleotides in the presence of magnesium ions is contained in KES-MG and ΔHES-MG relative to the KE-S and ΔHE-S values; analogous ratios report the effects in the absence of Mg(II):κ = KES-MG/KE-S κ = KES-G/KE-G Δh = ΔHES-MG − ΔHE-S Δh = ΔHES-G − ΔHE-G
The corresponding cooperative entropy change was calculated as:TΔs = Δh − Δg = Δh + RTlnκ
The detailed methodology and equations to compute the changes in the accessible surface area (∆ASA) of the GTPase upon binding to nucleotides and the ∆S energetic-based parameters are reported in [6]. Briefly, the water-accessible areas (ASAs) were computed using programme NACCESS, while the changes in accessible surface area (ΔASA) upon the formation of each GTPase–nucleotide complex were estimated considering the difference between the complex and the sum of the free interacting partners. The calculated polar (ΔASAp) and apolar (ΔASAap) area changes were subsequently used to estimate the free molecular partners. […]

wild-type Efl1 = settings: cited from earlier work; for -TΔSb / Kd / ΔGb / ΔHb / ΔCpb: guanine nucleotide
[1] = Effect of Mg^2+, wild-type Efl1 − Sdo1, 30 °C
[2] = Effect of Sdo1, wild-type Efl1 − Mg^2+, 30 °C

T1 sequence (P53893 whole entry R1086Q): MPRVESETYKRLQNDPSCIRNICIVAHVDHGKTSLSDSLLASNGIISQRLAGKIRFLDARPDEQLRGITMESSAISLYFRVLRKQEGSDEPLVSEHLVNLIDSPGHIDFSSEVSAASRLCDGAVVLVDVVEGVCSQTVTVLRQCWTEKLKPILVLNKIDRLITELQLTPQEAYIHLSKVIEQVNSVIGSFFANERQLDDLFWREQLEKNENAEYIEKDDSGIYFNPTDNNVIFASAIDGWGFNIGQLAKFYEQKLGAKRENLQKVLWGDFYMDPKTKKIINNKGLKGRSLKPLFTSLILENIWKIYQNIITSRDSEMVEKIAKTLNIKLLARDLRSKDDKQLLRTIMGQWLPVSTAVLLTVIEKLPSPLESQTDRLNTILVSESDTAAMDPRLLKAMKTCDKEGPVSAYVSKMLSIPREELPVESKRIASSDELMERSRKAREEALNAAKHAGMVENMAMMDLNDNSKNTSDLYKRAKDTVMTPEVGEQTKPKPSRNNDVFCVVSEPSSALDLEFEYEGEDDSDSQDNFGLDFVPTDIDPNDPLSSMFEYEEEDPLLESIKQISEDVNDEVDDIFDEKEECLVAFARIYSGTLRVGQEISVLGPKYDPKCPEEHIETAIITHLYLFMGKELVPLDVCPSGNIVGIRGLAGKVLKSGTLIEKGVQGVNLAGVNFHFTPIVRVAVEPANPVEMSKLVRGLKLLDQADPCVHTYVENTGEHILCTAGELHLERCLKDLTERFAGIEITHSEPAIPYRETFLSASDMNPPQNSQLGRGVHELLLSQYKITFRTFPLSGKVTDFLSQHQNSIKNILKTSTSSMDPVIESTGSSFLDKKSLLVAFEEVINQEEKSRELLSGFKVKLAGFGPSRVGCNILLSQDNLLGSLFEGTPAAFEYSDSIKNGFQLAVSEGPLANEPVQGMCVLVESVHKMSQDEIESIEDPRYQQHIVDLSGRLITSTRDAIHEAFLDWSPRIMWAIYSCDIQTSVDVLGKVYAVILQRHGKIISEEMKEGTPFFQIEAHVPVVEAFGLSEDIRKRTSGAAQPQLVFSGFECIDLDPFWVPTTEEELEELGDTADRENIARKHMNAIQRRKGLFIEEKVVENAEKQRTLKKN
T1 sequence (Q07953 whole entry, further chain): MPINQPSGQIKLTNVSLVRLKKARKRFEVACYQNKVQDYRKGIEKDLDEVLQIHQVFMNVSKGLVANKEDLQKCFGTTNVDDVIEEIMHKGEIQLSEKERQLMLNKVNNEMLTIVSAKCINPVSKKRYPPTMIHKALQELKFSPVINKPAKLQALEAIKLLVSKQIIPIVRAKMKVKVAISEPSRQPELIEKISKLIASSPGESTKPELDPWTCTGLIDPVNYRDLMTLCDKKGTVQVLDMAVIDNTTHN

Nc1nc2c(ncn2[C@@H]2O[C@H](COP(=O)(O)OP(=O)(O)O)[C@@H](O)[C@H]2O)c(=O)[nH]1 [GDP]
fold greater affinity in the presence of magnesium ions (Efl1 R1086Q•Sdo1; +Mg^2+ vs −Mg^2+): 2–5 times
-TΔSb (Efl1 R1086Q•Sdo1; +Mg^2+, 25 °C): -4.7 kcal/mol
ΔGb (Efl1 R1086Q•Sdo1; +Mg^2+, 25 °C): -6.9 kcal/mol
ΔHb (Efl1 R1086Q•Sdo1; +Mg^2+, 25 °C): -2.1 ± 0.08 kcal/mol
-TΔSb (Efl1 R1086Q•Sdo1; +Mg^2+, 30 °C): -3.3 kcal/mol
Nconfres (number of residues changing conformation, absolute value) (Efl1 R1086Q•Sdo1; +Mg^2+, 30 °C): 25
Nconfrotb (number of routable bonds changing conformation, absolute value) (Efl1 R1086Q•Sdo1; +Mg^2+, 30 °C): 34
ΔCpconf (Efl1 R1086Q•Sdo1; +Mg^2+, 30 °C): −267 cal mol^−1 K^−1
ΔCprb (Efl1 R1086Q•Sdo1; +Mg^2+, 30 °C): −48 cal mol^−1 K^−1
ΔGb (Efl1 R1086Q•Sdo1; +Mg^2+, 30 °C): -7.1 kcal/mol
ΔHb (Efl1 R1086Q•Sdo1; +Mg^2+, 30 °C): -3.8 ± 0.05 kcal/mol
ΔSb (Efl1 R1086Q•Sdo1; +Mg^2+, 30 °C): 11 cal mol^−1 K^−1
ΔSconf (Efl1 R1086Q•Sdo1; +Mg^2+, 30 °C): −57 cal mol^−1 K^−1
ΔSsolv (Efl1 R1086Q•Sdo1; +Mg^2+, 30 °C): 75 cal mol^−1 K^−1
−ΔASAconf (Efl1 R1086Q•Sdo1; +Mg^2+, 30 °C): 1198 Å^2
-TΔSb (Efl1 R1086Q•Sdo1; +Mg^2+, 35 °C): -2.0 kcal/mol
ΔGb (Efl1 R1086Q•Sdo1; +Mg^2+, 35 °C): -7.3 kcal/mol
ΔHb (Efl1 R1086Q•Sdo1; +Mg^2+, 35 °C): -5.3 ± 0.11 kcal/mol
ΔCpb (Efl1 R1086Q•Sdo1; +Mg^2+): −315 cal mol^−1 K^−1 and −315 ± 9 cal mol^−1 K^−1
-TΔs (Efl1 R1086Q•Sdo1; Efl1 R1086Q + Sdo1, 25 °C): -0.7 kcal/mol
Δg (Efl1 R1086Q•Sdo1; Efl1 R1086Q + Sdo1, 25 °C): -0.4 kcal/mol
Δh (Efl1 R1086Q•Sdo1; Efl1 R1086Q + Sdo1, 25 °C): 0.3 kcal/mol
κ (heterotropic cooperativity) (Efl1 R1086Q•Sdo1; Efl1 R1086Q + Sdo1, 25 °C): 1.9
-TΔs (Efl1 R1086Q•Sdo1; Efl1 R1086Q + Sdo1, 30 °C): -2.4 kcal/mol
Δg (Efl1 R1086Q•Sdo1; Efl1 R1086Q + Sdo1, 30 °C): -0.8 kcal/mol
Δh (Efl1 R1086Q•Sdo1; Efl1 R1086Q + Sdo1, 30 °C): 1.6 kcal/mol
κ (heterotropic cooperativity) (Efl1 R1086Q•Sdo1; Efl1 R1086Q + Sdo1, 30 °C): 3.7
-TΔs (Efl1 R1086Q•Sdo1; Efl1 R1086Q + Sdo1, 35 °C): -3.7 kcal/mol
Δg (Efl1 R1086Q•Sdo1; Efl1 R1086Q + Sdo1, 35 °C): -1.0 kcal/mol
Δh (Efl1 R1086Q•Sdo1; Efl1 R1086Q + Sdo1, 35 °C): 2.7 kcal/mol
κ (heterotropic cooperativity) (Efl1 R1086Q•Sdo1; Efl1 R1086Q + Sdo1, 35 °C): 5.4
Kd (Efl1 R1086Q•Sdo1; +Mg^2+, 25 °C): 9 ± 2 µM
Kd (Efl1 R1086Q•Sdo1; +Mg^2+, 30 °C): 8 ± 1 µM
Kd (Efl1 R1086Q•Sdo1; +Mg^2+, 35 °C): 6 ± 1 µM
Kd (Efl1 R1086Q•Sdo1; −Mg^2+, 25 °C): 17 ± 0.5 µM
Kd (Efl1 R1086Q•Sdo1; −Mg^2+, 30 °C): 30 ± 4 µM
Kd (Efl1 R1086Q•Sdo1; −Mg^2+, 35 °C): 34 ± 5 µM
-TΔSb (Efl1 R1086Q•Sdo1; −Mg^2+, 25 °C): -4.0 kcal/mol
ΔGb (Efl1 R1086Q•Sdo1; −Mg^2+, 25 °C): -6.5 kcal/mol
ΔHb (Efl1 R1086Q•Sdo1; −Mg^2+, 25 °C): -2.5 ± 0.4 kcal/mol
-TΔSb (Efl1 R1086Q•Sdo1; −Mg^2+, 30 °C): -1.0 kcal/mol
Nconfres (number of residues changing conformation, absolute value) (Efl1 R1086Q•Sdo1; −Mg^2+, 30 °C): 50
Nconfrotb (number of routable bonds changing conformation, absolute value) (Efl1 R1086Q•Sdo1; −Mg^2+, 30 °C): 72
ΔCpconf (Efl1 R1086Q•Sdo1; −Mg^2+, 30 °C): −520 cal mol^−1 K^−1
ΔGb (Efl1 R1086Q•Sdo1; −Mg^2+, 30 °C): -6.3 kcal/mol
ΔHb (Efl1 R1086Q•Sdo1; −Mg^2+, 30 °C): -5.4 ± 0.6 kcal/mol
ΔSb (Efl1 R1086Q•Sdo1; −Mg^2+, 30 °C): 3 cal mol^−1 K^−1
ΔSconf (Efl1 R1086Q•Sdo1; −Mg^2+, 30 °C): −121 cal mol^−1 K^−1
ΔSsolv (Efl1 R1086Q•Sdo1; −Mg^2+, 30 °C): 132 cal mol^−1 K^−1
−ΔASAconf (Efl1 R1086Q•Sdo1; −Mg^2+, 30 °C): 2334 Å^2
-TΔSb (Efl1 R1086Q•Sdo1; −Mg^2+, 35 °C): 1.7 kcal/mol
ΔGb (Efl1 R1086Q•Sdo1; −Mg^2+, 35 °C): -6.30 kcal/mol
ΔHb (Efl1 R1086Q•Sdo1; −Mg^2+, 35 °C): -8.0 ± 0.8 kcal/mol
ΔCpb (Efl1 R1086Q•Sdo1; −Mg^2+): −550 cal mol^−1 K^−1 and −550 ± 18 cal mol^−1 K^−1
-TΔs (wild-type Efl1; [1]): -0.5 kcal/mol
Δg (wild-type Efl1; [1]): 0.6 kcal/mol
Δh (wild-type Efl1; [1]): 1.1 kcal/mol
κ (heterotropic cooperativity) (wild-type Efl1; [1]): 0.4
-TΔs (wild-type Efl1; [2]): 1.5 kcal/mol
Δg (wild-type Efl1; [2]): 0.8 kcal/mol
Δh (wild-type Efl1; [2]): -0.7 kcal/mol
κ (heterotropic cooperativity) (wild-type Efl1; [2]): 0.3
-TΔSb (wild-type Efl1; +Mg^2+, 30 °C): -0.5 kcal/mol
Kd (wild-type Efl1; +Mg^2+, 30 °C): 37 µM
ΔGb (wild-type Efl1; +Mg^2+, 30 °C): -6.1 kcal/mol
ΔHb (wild-type Efl1; +Mg^2+, 30 °C): -5.6 ± 0.2 kcal/mol
ΔCpb (wild-type Efl1; +Mg^2+): −310 ± 5 cal mol^−1 K^−1 and −310 cal mol^−1 K^−1
-TΔSb (wild-type Efl1; −Mg^2+, 30 °C): 0.0 kcal/mol
Kd (wild-type Efl1; −Mg^2+, 30 °C): 16 µM
ΔGb (wild-type Efl1; −Mg^2+, 30 °C): -6.7 kcal/mol
ΔHb (wild-type Efl1; −Mg^2+, 30 °C): -6.7 ± 0.3 kcal/mol
ΔCpb (wild-type Efl1; −Mg^2+): −318 ± 35 cal mol^−1 K^−1 and −318 cal mol^−1 K^−1
